Read-outs that look alike come from different tables or passages of the source.
Key:
[1] = target: T1, native 5-HT2A receptor (Rattus norvegicus, UniProt P14842); assay type: cell-based; conditions: 10 μM 5-HT
T1 construct: expressed in transfected cells; host or cells: COS-7

[2] = target: T2, cys→lys mutant 5-HT2A receptor (Rattus norvegicus, UniProt P14842, C322K); assay type: binding; parameters: expressed in transfected cells; host or cells: COS-7; conditions: for change in binding affinity at the mutant 5-HT2A receptor: cys→lys mutant versus native, 3H-ketanserin
T2 sequence (P14842 whole entry C322K): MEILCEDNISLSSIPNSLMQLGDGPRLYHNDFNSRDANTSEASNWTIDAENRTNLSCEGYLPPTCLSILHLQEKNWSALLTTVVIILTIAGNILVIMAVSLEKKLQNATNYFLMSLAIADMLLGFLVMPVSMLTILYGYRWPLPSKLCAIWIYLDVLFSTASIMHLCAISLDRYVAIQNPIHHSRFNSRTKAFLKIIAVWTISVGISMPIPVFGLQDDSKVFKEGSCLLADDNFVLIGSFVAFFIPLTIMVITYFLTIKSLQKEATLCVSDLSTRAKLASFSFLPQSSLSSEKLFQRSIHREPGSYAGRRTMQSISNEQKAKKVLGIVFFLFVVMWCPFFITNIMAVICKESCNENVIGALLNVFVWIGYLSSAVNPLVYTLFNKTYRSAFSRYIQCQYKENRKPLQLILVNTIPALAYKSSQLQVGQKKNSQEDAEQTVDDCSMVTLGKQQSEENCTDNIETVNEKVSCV
Protocol: Saturation experiments were performed by using [^3 H]ketanserin (0.1-5.0 nM).

[3] = target: T2, cys→lys mutant 5-HT2A receptor; conditions: saturation analysis
Protocol: (§1) Bmax values were determined by a BCA assay.
(§2) BMAX values were determined by a BCA assay.

[4] = target: T1, native 5-HT2A receptor; assay type: binding; conditions: 3H-ketanserin saturation
Protocol: as §1, §2

[5] = tested on: 5-HT2C receptor; assay type: binding, rat; conditions: COS-7; native versus ser→lys and ser→phe mutant
[6] = tested on: 5-HT2A cys→lys mutant receptor; conditions: inverse agonism; for reduction of constitutively activated IP basal activity: mutated 5-HT2A cys→lys receptor
[7] = tested on: basal levels of IP production; assay type: cell-based, rat; conditions: COS-7, no agonist

T1 sequence (P14842 whole entry): as the sequence (P14842 whole entry C322K) above, with K322C counted along it

## NCCc1c[nH]c2ccc(O)cc12 [5-HT, serotonin]
[1]
  additional increase in IP production upon addition of 5-HT: additional increase in IP production

## COc1cc(CC(C)N)c(OC)cc1Br (stereo not shown) [DOB]
[2]; rat, cos-7 cells
  fold increase in affinity (Ki): 7.4 fold

## COc1cc(CC(C)N)c(OC)cc1C (stereo not shown) [DOM]
[2]; cys→lys mutant versus native 5-HT2A receptor
  fold increase in affinity (Ki): 5 fold

## O=C(c1ccc(F)cc1)C1CCN(CCn2c(=O)[nH]c3ccccc3c2=O)CC1 [^3 H-ketanserin]
[3]
  KD of 3H-ketanserin, native versus mutant: did not differ between the native and mutant receptors
[4]
  BMAX: 193 ± 37 fmol/mg

## CN1C[C@@H](NS(=O)(=O)N(C)C)C[C@@H]2c3cccc4c3c(cn4C)C[C@H]21 [^3 H-mesulergine]
[5]
  5-HT2C receptor density (3H-mesulergine saturation): greater in cells transfected with native receptors than in cells transfected with either the ser→lys or the ser→phe mutant receptors

## O=C(c1ccc(F)cc1)C1CCN(CCn2c(=O)[nH]c3ccccc3c2=O)CC1 [ketanserin]
[6]; COS-7, 5-HT2A cys→lys receptor
  decrease of the constitutive IP stimulation: 80%
[2]
  change in binding affinity at the mutant 5-HT2A receptor: no change in binding affinity

## CN1CCN(C2=Nc3ccccc3Oc3ccc(Cl)cc32)CC1 [loxapine]
[6]
  reduction of constitutively activated IP basal activity: reduce the constitutively activated IP basal activity

## CN1CCN2c3ccccc3Cc3ccccc3C2C1 (stereo not shown) [mianserin]
[2]
  change in binding affinity at the mutant 5-HT2A receptor: apparent decease in the binding affinity

## O=C(CCCN1CCC2(CC1)C(=O)NCN2c1ccccc1)c1ccc(F)cc1 [spiperone]
[6]
  reduction of constitutively activated IP basal activity: reduce the constitutively activated IP basal activity
[2]
  change in binding affinity at the mutant 5-HT2A receptor: no change in binding affinity

B1: ser→phe mutant 5-HT2C receptors: rat 5-HT2C receptor with serine #312 mutated to phenylalanine (protein, UniProt P08909 33-460, looked up, variant S312F)
5-hydroxytryptamine receptor …: IVTDTFNSSDGGRLFQFPDGVQNWPALSIVVIIIMTIGGNILVIMAVSMEKKLHNATNYFLMSLAIADMLVGLLVMPLSLLAILYDYVWPLPRYLCPVWISLDVLFSTASIMHLCAISLDRYVAIRNPIEHSRFNSRTKAIMKIAIVWAISIGVSVPIPVIGLRDESKVFVNNTTCVLNDPNFVLIGSFVAFFIPLTIMVITYFLTIYVLRRQTLMLLRGHTEEELANMSLNFLNCCCKKNGGEEENAPNPNPDQKPRRKKKEKRPRGTMQAINNEKKAFKVLGIVFFVFLIMWCPFFITNILSVLCGKACNQKLMEKLLNVFVWIGYVCSGINPLVYTLFNKIYRRAFSKYLRCDYKPDKKPPVRQIPRVAATALSGRELNVNIYRHTNERVARKANDPEPGIEMQVENLELPVNPSNVVSERISSV
[7]
  fold increase in basal levels of IP production compared with cells expressing native 5-HT2C receptors: 2 fold
